Test results from patent US20050058745A1, “Use of Labiatae herb preparations for extending the flavor shelf life of malt beverages” (priority 2003, published 2005).

Legend:
[1] = DCIP redox potential of light beer during pasteurization; assay type: physicochemical; conditions: for preservation of redox potential during pasteurization: 20 ppm; for Redox Potential: +20 ppm
Experimental: Five bottles of a commercial light beer, 81 days old at the time of the experiment, but having been stored at 2° C. were used in this experiment. The following five treatments were prepared: • 1. An unpasteurized control was prepared by leaving one bottle unopened in the refrigerator until analysis. • 2. Another bottle was opened, 20 ppm carnosic acid was added from a solution made from pure material, and the bottle fobbed and crowned. This sample was also not pasteurized. • 3. A bottle was opened, fobbed to exclude air, and crowned. This sample is designated the No Addition Pasteurized Control. • 4. A bottle was opened and 20 ppm carnosic acid was added from a solution made from pure compound. The bottle was fobbed and crowned and subjected to pasteurization. • 5. A bottle was opened and 20 ppm of rosmarinic acid was added from a solution of pure compound. The bottle was fobbed and crowned and subjected to pasteurization. Treatments 3, 4, and 5 were immersed in an ambient temperature water bath and heated to 60° C. The approximate time to reach 60° C. from ambient was 12 minutes. The bottles remained at 60° C. for 12 minutes. They were then removed and cooled. All five treatments were analyzed by the DCIP-Redox method described in Example 4.

[2] = Sensory panel staling scaling of bottled standard American lager; conditions: 10 ppm (RA/CA: 5 ppm CA + 5 ppm RA)
Experimental: A standard American lager and a light lager were purchased commercially. The treatment bottles were opened, dosed, fobbed, crowned and inverted. The control bottles were opened, crowned and inverted. Dosing was performed as follows. One gram of pure antioxidant (corrected for actual purity) was dissolved in 100 mL ethanol and sonicated to make the antioxidant solutions of 1 weight/volume %. The volumes shown in Table 16 show the amount of the antioxidant solutions added to obtain a total of 10 ppm carnosic acid and/or rosmarinic acid in the final beverage formulations.
The sensory data were taken in the following manner. Each treatment sample was presented to the panelists one time each in two different sessions each at a different amount of aging time (5 vs. 10 days). Panelists rated the beers on a scale of 0-10, with 0 being fresh and 10 being most stale. Since the output of the panel as a whole was desired, and not any one individual panelist, the means of each treatment sample in each replicate groups were calculated and tabulated as in Table 17. Samples spiked with known amounts of off-flavors characteristic of the aged standard American lager were used as reference beers. This characterization was done in a separate descriptive session. The characteristic off-flavors in the pilot brewery beer were papery and leathery, and these were each spiked into fresh control beer at 0.75 and 1.5 times the typical flavor threshold.
Statistical analysis consisted of doing paired t-Tests on the treatment sample vs. the aged control sample (Table 18). One-tailed tests were used that probed the question whether the staling values of one treatment were lower than that of the other (e.g treatment vs. control). Confidence levels were reported along with p values.

[3] = Trained panel flavor evaluation, highly hopped aromatic beer, forced aging; conditions: 20 ppm
Experimental: Separate solutions containing 2% pure rosmarinic acid or pure carnosic acid were prepared by weighing out 500 mg of each compound into separate volumetric flasks and diluting to 25 mL with 100% EtOH. The beer used in this study was the freshest material available, being coded Nov 03 […]. It was purchased at a local market. Bottle additions were done as in Example 1. The following samples were prepared: The bottles were placed in a heated room at 40±1° C. in the dark for varying amounts of time. After the allotted aging time, the bottles of beer were transferred to a dark refrigerator and stored at approximately 2to 4° C. until they were analyzed (always within 48 hours). Additional bottles from the same code were kept unopened in 2° to 4° C. storage. These unopened samples from the same beer code were labeled “Fresh Control” used to provide fresh samples for the trained panel. At the appropriate times, a trained 8-member panel evaluated the beers. […] Three beers were evaluated at each session-Fresh Control, Aged No Addition, and Aged Beer with one of the Labiatae treatments. The overall preference rank, the character and intensity of the aroma, the levels of paper/cardboard aroma and flavor, sour or off flavors, hang and astringency and bitterness quality and intensity were evaluated.

[4] = pasteurized (60° C. for 12 minutes)

Compound | preservation of redox potential during pasteurization [1] | Redox Potential ([1]; no pasteurization) | Redox Potential [1, 4] | Panelist staling average, Day 5 Average (0 fresh, 10 most stale) ([2]; Aged) | Panelist staling average, Day 10 Average (0 fresh, 10 most stale) ([2]; Aged) | Panelist staling average, Day 5 Average (0 fresh, 10 most stale) ([2]; Fresh) | Panelist staling average, Day 10 Average (0 fresh, 10 most stale) ([2]; Fresh) | panelists' preference for treated sample over Aged No Addition sample ([3]; 1 week 40° C.) | panelists' preference for treated sample over Aged No Addition sample ([3]; 3 days 40° C.)
CC(C)c1cc2c(c(O)c1O)[C@@]1(C(=O)O)CCCC(C)(C)[C@@H]1CC2 [CA, carnosic acid] | held at a higher level than the untreated, unpasteurized control | 67.4 | 45.0 | 3.00 | 4.375 | 2.89 | 2.25 | 8 of 8 panelists preferred | –
O=C(/C=C/c1ccc(O)c(O)c1)O[C@H](Cc1ccc(O)c(O)c1)C(=O)O [RA, rosmarinic acid] | no potential to preserve the redox potential of beer during pasteurization | – | 13.4 | 3.22 | 2.75 | 0.78 | 2.5 | 7 of 8 panelists preferred | 6 of 8 panelists preferred
